Assay results: patent publication EP0528699B1, “Saishin N derivatives, process for their preparation and anti-ulcer agents containing them” (TOKYO TANABE COMPANY LIMITED, priority 1991, dated 1993)
Marks after values point to notes of the source that are not given here.

Key:
Format in all cases: in vivo, male Wister rats
[1] = tested on: Serotonin-Induced Ulcers; experiment: Serotonin-Induced Ulcers; details: Rattus norvegicus, 4.5 h; dose 20 mg/kg intraduodenally 30 minutes before Serotonin creatinine sulfate 30 mg/kg subcutaneously; read-out: Serotonin, inhibiting ratio
Protocol: (§1) Experiments on Hydrochloric acid-Ethanol-Induced Ulcers, Aspirin-Induced Ulcers, Water-Immersion stress-Induced Ulcers, Shay's Ulcers and Serotonin-Induced Ulcers were carried out using male Wister rats weighing about 200g in groups of six. Experiments on Ischemia-Reperfusion -Induced Gastric Lesions were carried out using male SD rats weighing about 250g in groups of six. Other than for the tests on Ischemia-Reperfusion-Induced Gastric Lesions Models, the test compounds were prepared by mixing thoroughly with polyethyleneglycol and 0.5% sodium carboxymethyl cellulose solution and emulsifying vigorously. Activities against respective ulcer models were evaluated by an inhibiting ratio obtained by dividing the difference between the ulceration indexes of the non-administered group and the test compound group by the non-administered group.
To each rat which had been fasted for 24 hours, 30 mg/kg of a solution of serotonin creatinine sulfate in a saline solution was administered subcutaneously. Each rat was then slaughtered after 4 and a half hours and area of gastric mucosal lesion formed facing the center line of greater curvature of the corpus ventriculi of stomach was measured and ulceration index was calculated based on the area. The test compound was administered intraduodenally 30 minutes before the administration of the Serotonin creatinine sulfate.
(§2) The results of Aspirin-Induced Ulcers, Water-immersion stress-Induced Ulcers, Shay's Ulcers, Serotonin-induced Ulcers and Ischemia-Reperfusion-Induced Gastric lesions are shown in Table 3.

[2] = tested on: Hydrochloric acid-Ethanol-Induced Ulcers; experiment: Hydrochloric acid-Ethanol-Induced Ulcers; details: for inhibition in vivo at 20 mg/kg / inhibition in vivo at 10 mg/kg / inhibition in vivo at 5 mg/kg: Rattus norvegicus, intraduodenal, read-out: Inhibition ratio(%); for inhibition in vivo at 20 mg/kg: 3 h; for inhibition in vivo at 10 mg/kg / inhibition in vivo at 5 mg/kg: 1 h, Table 2; for inhibition in vivo at 10 mg/kg: dose 10 mg/kg intraduodenally one hour before hydrochloric acid - 60% ethanol; for inhibition in vivo at 5 mg/kg: dose 5 mg/kg intraduodenally one hour before hydrochloric acid - 60% ethanol
Protocol: as §1
To each rat which had been fasted for 24 hours was orally administered 0.5ml of a mixed solution of 150 mM hydrochloric acid - 60% ethanol per 100g of weight. Each rat was slaughtered after one hour, a length of ulcer formed at the fundus gland area of stomach was measured and ulceration index was calculated based on the length. The test compound was administered intraduodenally one hour or three hours before the administration of mixed solution of hydrochloric acid - 60% ethanol.

[3] = tested on: Water-Immersion stress-Induced Ulcers; experiment: Water-Immersion stress-Induced Ulcers; details: Rattus norvegicus, po, 10 h, read-out: Water-Immersion Stress, inhibiting ratio; for inhibition in vivo at 50 mg/kg: dose 50 mg/kg orally 10 minutes before the exposure to stress; for inhibition in vivo at 20 mg/kg: dose 20 mg/kg orally 10 minutes before the exposure to stress
Protocol: as §1
Each rat which had been fasted for 15 hours was immobilized in a stress cage and immersed to chest depth in a water bath at 21°C. Each rat was slaughtered after 10 hours, a length of ulcer formed at the fundus gland area of stomach was measured and ulceration index was calculated based on the length. The test compound was administered orally 10 minutes before the exposure to stress.
as §2

[4] = tested on: Shay's Ulcers; experiment: Shay's Ulcers; details: Rattus norvegicus, intraduodenal, 14 h; dose 50 mg/kg intraduodenally immediately after the ligation; read-out: Shay, inhibiting ratio
Protocol: as §1
In each rat which had been fasted for 48 hours, the pyloric end of stomach was ligated, and each was kept without giving any food or water for 14 hours. Each rat was then slaughtered, and area of ulcer formed in the forestomach was measured and ulceration inded was calculated based on the area. The test compound was administered intraduodenally immediately after the ligation.
as §2

[5] = tested on: Aspirin-Induced Ulcers; experiment: Aspirin-Induced Ulcers; details: Rattus norvegicus, 9 h; dose 50 mg/kg intraduodenally at pylorus ligation, 5 minutes before 150 mg/kg of aspirin orally; read-out: Aspirin, inhibiting ratio
Protocol: as §1
In each rat which had been fasted for 24 hours, the pyloric end of the stomach was ligated, and simultaneously the test compound was administered intraduodenally, and after 5 minutes, 150 mg/kg of aspirin was administered orally, respectively. After 9 hours from ligation, each rat was slaughtered, a length of ulcer formed at the fundus gland area of stomach was measured and ulceration index was calculated based on the length.
as §2

[6] = Table 1, dose 20 mg/kg intraduodenally three hours before hydrochloric acid - 60% ethanol

Compound | inhibition in vivo at 20 mg/kg [2, 6] [%] | also measured
CC(=O)OC1CC(C)C(=O)CC(C)(C)C1OC(C)=O (stereo not drawn) [AU117, 2,4-cis-4,5-diacetoxy-2,6,6-trimethylcycloheptan-1-one] | 62 | inhibition in vivo at 20 mg/kg [1]: 60%
COC1C=C(C)C(=O)CC(C)(C)C1O (centres unmarked) [AU154, 5-hydroxy-4-methoxy-2,6,6-trimethyl-2-cyclohepten-1-one] | 21 | inhibition in vivo at 50 mg/kg [3]: 17%; inhibition in vivo at 20 mg/kg [1]: 46%; inhibition in vivo at 10 mg/kg [2]: 67%; inhibition in vivo at 50 mg/kg [4]: 22%
COC1C=C(C)C(=O)CC(C)(C)C1OC(=O)c1ccc([N+](=O)[O-])cc1[N+](=O)[O-] (centres unmarked) [AU407, 5-(2,4-dinitrobenzoyloxy)-4-methoxy-2,6,6-trimethyl-2-cyclohepten-1-one] | 82 | inhibition in vivo at 50 mg/kg [3]: 50%; inhibition in vivo at 20 mg/kg [1]: 41%; inhibition in vivo at 50 mg/kg [5]: 71%
COC1CC(C)(C)C(OC(C)=O)C(OC(C)=O)C=C1C (centres unmarked) [AU112, 4,5-diacetoxy-1-methoxy-2,6,6-trimethyl-2-cycloheptene] | 45 | 
COC1C=C(C)C(=O)CC(C)(C)C1OC(=O)c1ccc2nc[nH]c2c1 (centres unmarked) [AU507, 5-(5-benzimidazolylcarbonyloxy)-4-methoxy-2,6,6-trimethyl-2-cyclohepten-1-one] | 63 | 
COc1cc(C=CC(=O)OC2C(O)C=C(C)C(=O)CC2(C)C)ccc1O (centres unmarked) [AU414, 4-hydroxy-5-(4-hydroxy-3-methoxycinnamoyloxy)-2,6,6-trimethyl-2-cyclohepten-1-one] | 89 | inhibition in vivo at 20 mg/kg [3]: 41%
CC(C)=CCOC1CC(C)(C)C(O)C(OC(=O)c2ccccc2)C=C1C (centres unmarked) [AU144, 4-benzoyloxy-1-(3-methyl-2-buten-1-yloxy)-2,6,6-trimethyl-2-cyclohepten-5-ol] | 51 | 
COC1C=C(C)C(=O)CC(C)(C)C1OC(=O)c1ccc2nc(N)[nH]c2c1 (centres unmarked) [AU415, 5-(2-aminobenzimidazolyl-5-carbonyloxy)-4-methoxy-2,6,6-trimethyl-2-cyclohepten-1-one] | 30 | 
COC1C(OC(=O)c2ccccc2)C=C(C)C(=O)CC1(C)C (centres unmarked) [AU223, 4-benzoyloxy-5-methoxy-2,6,6-trimethyl-2-cyclohepten-1-one] | 49 | 
CC(=O)OC1C(OC(=O)c2cccc(Cl)c2)CC(C)C(=O)CC1(C)C (stereo not drawn) [AU199, 2,4-cis-5-acetoxy-4-(3-chlorobenzoyloxy)-2,6,6-trimethylcycloheptan-1-one] | 29 | 
COC1CC(C)C(=O)CC(C)(C)C1OC(=O)c1ccccc1 (stereo not drawn) [AU123B, 2,4-cis-5-benzoyloxy-4-methoxy-2,6,6-trimethyl cycloheptan-1-one] | 25 | 
CC1CC(O)C2OC1(OC(=O)c1ccccc1)CC2(C)C (stereo not drawn) [AU252, 2,4-cis-1-benzoyloxy-2,6,6-trimethyl-8-oxabicyclo [3.2.1] octan-4-ol] | 31 | 
CC1=CC(O)C(OC(=O)c2ccccc2Cl)C(C)(C)CC1=O (centres unmarked) [AU127, 5-(2-chlorobenzoyloxy)-4-hydroxy-2,6,6-trimethyl-2-cyclohepten-1-one] | 87 | 
CC1=CC(OC(=O)c2ccc(N)cc2)C2OC1(OCCO)CC2(C)C (centres unmarked) [AU249, 4-(4-aminobenzoyloxy)-1-(2-hydroxyethoxy)-2,6,6-trimethyl-8-oxabicyclo [3.2.1] oct-2-ene] | 65 | inhibition in vivo at 20 mg/kg [3]: 33%
COc1ccc(C(=O)OC2C=C(C)C(=O)CC(C)(C)C2O)cc1 (centres unmarked) [AU195, 5-hydroxy-4-(4-methoxybenzoyloxy)-2,6,6-trimethyl-2-cyclohepten-1-one] | 40 | 
CC(=O)OC1C=C(C)C(=O)CC(C)(C)C1OC(C)=O (centres unmarked) [AU102, 4,5-diacetoxy-2,6,6-trimethyl-2-cyclohepten-1-one] | 49 | inhibition in vivo at 10 mg/kg [2]: 75%

Compound | inhibition in vivo at 20 mg/kg [2, 6] [%] | also measured
CC1=CC(OC(=O)C=Cc2ccc(O)cc2)C(O)C(C)(C)CC1=O (centres unmarked) [AU506, 5-hydroxy-4-(4-hydroxycinnamoyloxy)-2,6,6-trimethyl-2-cyclohepten-1-one] | 81 | 
COC12CC(C)(C)C(O1)C(O)CC2C (stereo not drawn) [AU105A, 2,4-trans-1-methoxy-2,6,6-trimethyl-8-oxabicyclo [3.2.1] octan-4-ol] |  | Inhibition ratio(%) ([2]; Table 1, dose 20 mg/kg intraduodenally three hours before hydrochloric acid - 60% ethanol, 20 mg/kg): 44* %
CC(=O)Nc1cccc(C(=O)OC2C(OC(C)=O)C=C(C)C(=O)CC2(C)C)c1 (centres unmarked) [AU224, 5-(3-acetamidobenzoyloxy)-4-acetoxy-2,6,6-trimethyl-2-cyclohepten-1-one] | 47 | 
CC(=O)OC1C(OC(=O)C=Cc2ccccc2)C=C(C)C(=O)CC1(C)C (centres unmarked) [AU208, 5-acetoxy-4-cinnamoyloxy-2,6,6-trimethyl-2-cyclohepten-1-one] | 39 | 
CC(=O)OC1CC(C)C(=O)CC(C)(C)C1OC(=O)c1ccccc1 (stereo not drawn) [AU192, 2,4-cis-4-acetoxy-5-benzoyloxy-2,6,6-trimethylcycloheptan-1-one] | 49 | 
COC12CC(C)(C)C(O1)C(OCc1ccccc1)C=C2C (centres unmarked) [AU157, 1-methoxy-4-benzyloxy-2,6,6-trimethyl-8-oxabicyclo [3.2.1] oct-2-ene] |  | inhibition in vivo at 5 mg/kg [2]: 64%
CC1=CC(OC(=O)C=Cc2ccc(N)cc2)C(O)C(C)(C)CC1=O (centres unmarked) [AU401, 4-(4-aminocinnamoyloxy)-5-hydroxy-2,6,6-trimethyl-2-cyclohepten-1-one] | 49 | inhibition in vivo at 20 mg/kg [1]: 68%
CC1=CC(OC(=O)c2cccc([N+](=O)[O-])c2)C(O)C(C)(C)CC1=O (centres unmarked) [AU200, 5-hydroxy-4-(3-nitrobenzoyloxy)-2,6,6-trimethyl-2-cyclohepten-1-one] | 50 | 
COC1CC(C)(C)C(OC(=O)c2ccccc2)C(O)C=C1C (centres unmarked) [AU115, 5-benzoyloxy-1-methoxy-2,6,6-trimethyl-2-cyclohepten-4-ol] | 83 | 
COc1ccc(C(=O)OC2C=C(C)C(=O)CC(C)(C)C2O)cc1OC (centres unmarked) [AU133, 4-(3,4-dimethoxybenzoyloxy)-5-hydroxy-2,6,6-trimethyl-2-cyclohepten-1-one] | 38 | 
COc1cc(C=CC(=O)OC2C=C(C)C(=O)CC(C)(C)C2O)ccc1O (centres unmarked) [AU416, 5-hydroxy-4-(4-hydroxy-3-methoxycinnamoyloxy)-2,6,6-trimethyl-2-cyclohepten-1-one] | 72 | 
COC12CC(C)(C)C(OC(C)=O)C(C=C1C)O2 (centres unmarked) [AU159, 4-acetoxy-1-methoxy-3,3,7-trimethyl-8-oxabicyclo [3.2.1] oct-6-ene] |  | inhibition in vivo at 5 mg/kg [2]: 94%; inhibition in vivo at 10 mg/kg [2]: 83%
CC1=CC(OC(=O)c2ccc([N+](=O)[O-])cc2Cl)C(O)C(C)(C)CC1=O (centres unmarked) [AU219, 4-(2-chloro-4-nitrobenzoyloxy)-5-hydroxy-2,6,6-trimethyl-2-cyclohepten-1-one] | 60 | 
CC(=O)OC1C(OC(=O)c2ccc(N)cc2)C=C(C)C(=O)CC1(C)C (centres unmarked) [AU197, 5-acetoxy-4-(4-aminobenzoyloxy)-2,6,6-trimethyl-2-cyclohepten-1-one] | 44 | 
CO[C@H]1C[C@H](C)C(=O)CC(C)(C)C1OC(=O)c1ccccc1 (relative stereo) [AU123A, 2,4-trans-5-benzoyloxy-4-methoxy-2,6,6-trimethylcycloheptan-1-one] | 34 | 
